System: non-anticholinergic delirium (lithium poisoning, severe hyperactive delirium)
Assay: Individual case: treatment of a non-anticholinergic (lithium poisoning) delirium with orally administered rivastigmine
Assay type: in vivo, human
Conditions: patient, after 48 hours of therapy at 2×1.5 mg
Description: Treatment of a non-anticholinergic delirium with an orally administered modern inhibitor of acetylcholine esterase, rivastigmine
A patient had suffered from manic-depressive disease. Until recently there were no mental disintegration phenomena. After a urinary tract infection with lithium therapy of the manic-depressive condition, lithium poisoning occurred with a severe hyperactive delirium which forced the patient to be admitted to a hospital on an in-patient ward. These lithium poisoning deliria generally subside completely only after 6-8 weeks. The patient was transferred to a private clinic after 4 days and was highly psychotic, urinated in the corner of the room, talked to the lamp on the night table, hallucinated strange individuals and dwarves in the room, repeatedly fled the ward, believed that the nursing personnel wanted to kill them, was extremely agitated in motor response and restless, fumbled around with the blanket and phone cord, fell asleep repeatedly during the day, but remained up all night. The patient cried and laughed in alternation, suddenly became afraid again and again and then laughed. All these symptoms were very unstable, highly varied, but the patient was not actually responsive on the admission date. On the Trzepacz scale of delirium (Psychiatry Research, 23, (1988), […]) a score of 29 (of a possible 32) corresponding to a severe delirium was reached. […]

CCN(C)C(=O)Oc1cccc([C@H](C)N(C)C)c1 [rivastigmine]
clinical state after therapy: the patient was oriented, no longer hallucinated
delirium score on the Trzepacz scale of delirium (score before therapy 29 (of a possible 32)): 8
